Laboratory results published in US9951046B2, “TRPA1 modulators” (Algomedix, Inc., priority 2014, dated 2018).

Each molecule was assayed against T1, human TRPA1 (Homo sapiens, UniProt O75762) (assay: Cell-based functional intracellular calcium ([Ca2+]i) assay, Fluo-4/Fluo-8, FlexStation, challenge with reference TRPA1 agonist (FFA, AITC or 4-HNE)). Conditions: not given.
T1 construct: expressed in transfected cells
Experimental: A stable HEK293 cell line that expresses human TRPA1 in an inducible manner was employed in this assay. […] The expression of TRPA1 was induced by including 1 μg/ml doxycycline in the culture medium. For the induced cells, ruthenium red (5 μM) was also added to minimize the constitutive TRPA1 channel activity and cells were used 14-18 hrs after induction. To measure [Ca^2+]i changes, cells were seeded in wells of 96-well plates at ˜100,000 cells/well and grown for 14-18 hrs to reach confluency. To prevent cell loss from subsequent washing, the wells were treated with 20 μg/ml polyornithine (MW>30,000, Sigma, St Louis, Mo.) for >15 min and rinsed once with Hank's balanced salt solution without Mg^2+ and Ca^2+. […] In some experiments, Fluo-8-AM was used instead of Fluo-4-AM as the calcium-sensitive fluorescent probe. Probenecid (2 mM) was included in all solutions to prevent the leakage of Fluo-4 or Fluo-8 from the cells. At the end of the incubation, cells were washed three times with ECS and placed in 80 μL of the same solution. Fluorescence changes were measured using a fluid handling integrated fluorescence plate reader, FlexStation (Molecular Devices, Sunnyvale, Calif.). Stock solutions of test compounds were initially solubilized in 100% DMSO and then serially diluted to achieve the desired final concentration. […] Drugs were diluted into ECS at 2× or 3× the desired final concentrations and delivered to the sample plate by an integrated robotic 8-channel pipettor at preprogrammed time points. […] Experiments were performed at 20-25° C. For certain experiments, 0.1% BSA was included with the cells and test compounds.
The kinetic data obtained at each test concentration of drug represents a series of fluorescent intensities as a function of time.
Using a sequential addition protocol, test compounds were initially applied to the cells loaded with Fluo-4 or Fluo-8 and fluorescence changes in each well monitored for 2.5 min. The plate was read again in a kinetic mode after a 15-30 min incubation with the test compounds after obtaining baseline values (about 30 s) and subsequent addition of challenge with a reference TRPA1 agonist. Reference TRPA1 agonists in testing each compound included at least one of flufenamic acid (FFA), allyl isothiocyanate (AITC) and 4-hydroxynonenal (4-HNE).
Antagonist activity can be expressed in terms of IC50 with respect to TRPA1 and agonist activity can be expressed in terms of EC50 with respect to TRPA1.

T1 sequence (O75762 whole entry): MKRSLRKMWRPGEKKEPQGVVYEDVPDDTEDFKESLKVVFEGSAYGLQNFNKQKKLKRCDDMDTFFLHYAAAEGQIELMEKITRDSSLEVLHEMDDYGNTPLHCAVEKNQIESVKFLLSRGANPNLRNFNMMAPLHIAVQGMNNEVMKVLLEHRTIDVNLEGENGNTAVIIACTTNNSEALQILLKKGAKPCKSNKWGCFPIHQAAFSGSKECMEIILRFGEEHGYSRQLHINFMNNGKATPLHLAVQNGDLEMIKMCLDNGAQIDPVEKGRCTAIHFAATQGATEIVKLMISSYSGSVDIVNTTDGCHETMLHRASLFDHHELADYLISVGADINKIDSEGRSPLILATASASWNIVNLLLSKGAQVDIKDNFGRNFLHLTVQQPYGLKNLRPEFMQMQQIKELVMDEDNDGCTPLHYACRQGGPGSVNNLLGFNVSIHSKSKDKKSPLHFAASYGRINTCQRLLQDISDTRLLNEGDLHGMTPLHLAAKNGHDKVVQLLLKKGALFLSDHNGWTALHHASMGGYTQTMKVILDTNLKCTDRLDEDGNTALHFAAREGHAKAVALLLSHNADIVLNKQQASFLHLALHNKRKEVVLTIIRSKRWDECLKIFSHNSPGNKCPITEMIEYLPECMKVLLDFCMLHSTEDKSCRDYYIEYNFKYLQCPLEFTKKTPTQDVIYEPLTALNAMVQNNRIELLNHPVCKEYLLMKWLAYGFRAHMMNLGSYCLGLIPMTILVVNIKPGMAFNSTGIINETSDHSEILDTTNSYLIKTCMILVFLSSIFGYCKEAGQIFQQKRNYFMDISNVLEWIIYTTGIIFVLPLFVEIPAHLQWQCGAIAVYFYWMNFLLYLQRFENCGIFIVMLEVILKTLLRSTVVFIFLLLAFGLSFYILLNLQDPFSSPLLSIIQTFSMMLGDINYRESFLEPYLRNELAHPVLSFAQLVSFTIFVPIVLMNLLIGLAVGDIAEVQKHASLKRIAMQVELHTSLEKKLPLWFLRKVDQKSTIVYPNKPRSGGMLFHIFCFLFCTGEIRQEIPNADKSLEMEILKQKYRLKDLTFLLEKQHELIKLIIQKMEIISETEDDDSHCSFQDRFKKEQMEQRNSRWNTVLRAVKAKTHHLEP

Row | Compound | IC50
1 | O=C(c1cc(-c2ccncc2)n(-c2ccc(F)cc2F)n1)N1CCC2(CC1)OCCO2 [Compound 154] | > 25 µM
2 | O=C(c1cc(-c2ccncc2)n(-c2ccc(C(F)(F)F)c(F)c2)n1)N1CCC(N2C(=O)Cc3ccccc32)CC1 [Compound 98] | 5 to 25 µM
3 | CC1COC2(CCN(C(=O)c3cc(-c4ccncc4)n(-c4ccc(C(F)(F)F)cc4)n3)CC2)O1 (stereo not drawn) [Compound 71] | > 25 µM

Same assay, conditions: HEK293 cells expressing human TRPA1; IC50 class after addition of reference TRPA1 agonist (FFA, AITC or 4-HNE); read-out: human TRPA1-HEK Activity

Row | Compound | IC50
4 | O=C(c1cc(-c2ccncc2)n(-c2ccc(C(F)(F)F)c(F)c2)n1)N1CCC2(CC1)SCCS2 [Compound 107] | > 25 µM
5 | O=C(c1cc(-c2cccnc2)n(-c2ccc(I)cc2)n1)N1CCC2(CC1)C(=O)NCN2c1ccc(F)cc1 [Compound 246] | 0.001 to 5 µM
6 | O=C(c1cc(-c2ccncc2)n(-c2cnccn2)n1)N1CCC(c2nc3ccccc3o2)CC1 [Compound 129] | > 25 µM
7 | O=C(c1cc(-c2ccncc2)n(-c2ccc(C(F)(F)F)nc2)n1)N1CCC(N2C(=O)OC[C@H]2c2ccccc2)CC1 [Compound 127] | > 25 µM
8 | O=C(c1cc(-c2cccnc2)n(-c2cc(F)c(F)c(F)c2)n1)N1CCC2(CC1)C(=O)NCN2c1ccc(Br)cc1 [Compound 201] | 0.001 to 5 µM
9 | O=C(c1cc(-c2cncc(F)c2)n(-c2ccc(C(F)(F)F)c(F)c2)n1)N1CCC(n2c(=O)[nH]c3ccc(F)c(F)c32)CC1 [Compound 319] | 0.001 to 5 µM
10 | O=C(Nc1ccc2c(c1)OC(F)(F)O2)c1cc(-c2ccncc2)n(-c2ccc(F)c(F)c2)n1 [Compound 88] | 5 to 25 µM
11 | O=C(c1nn(-c2cc(F)c(F)c(F)c2)c(-c2cccnc2)c1Br)N1CCC2(CC1)C(=O)NCN2c1ccc(F)cc1 [Compound 210] | 0.001 to 5 µM
12 | Cc1cc(-n2nc(C(=O)N3CCC(n4c(=O)[nH]c5ccc(F)c(F)c54)CC3)cc2-c2cccnc2)cc(C(F)(F)F)c1F [Compound 286] | 0.001 to 5 µM
13 | CN1C(=O)COc2cc(NC(=O)c3cc(-c4ccncc4)n(-c4ccc(F)c(F)c4)n3)ccc21 [Compound 89] | > 25 µM
14 | N#Cc1ccc2c(c1)[nH]c(=O)n2C1CCN(C(=O)c2cc(-c3cccnc3)n(-c3ccc(C(F)(F)F)c(F)c3)n2)CC1 [Compound 228] | 0.001 to 5 µM
15 | O=C1Nc2ccc(C(F)(F)F)cc2C2(CCN(C(=O)c3cc(-c4cccnc4)n(-c4ccc(F)c(C(F)(F)F)c4)n3)CC2)O1 [Compound 274] | 0.001 to 5 µM
16 | O=C(c1cc(-c2ccncc2)n(-c2ccc(F)c(F)c2)n1)N1CCC2(CC1)C(=O)NCN2c1ccccc1 [Compound 149] | 5 to 25 µM
17 | O=C(c1cc(-c2ccncc2)n(-c2ccc(C(F)(F)F)c(F)c2)n1)N1CCC2(CC1)C(=O)NCN2c1ccc(F)cc1 [Compound 99] | 0.001 to 5 µM
18 | O=C(c1cc(-c2ccncc2)n(-c2cc(C(F)(F)F)cc(C(F)(F)F)c2)n1)N1CCC(n2c(=O)[nH]c3ccccc32)CC1 [Compound 159] | 5 to 25 µM
19 | N#Cc1ccc2[nH]c(=O)n(C3CCN(C(=O)c4cc(-c5cccnc5)n(-c5ccc(C(F)(F)F)c(F)c5)n4)CC3)c2c1 [Compound 190] | 0.001 to 5 µM
20 | O=C(c1cc(-c2ccncc2)n(-c2ccccc2)n1)N1CCN(c2ncccc2C(F)(F)F)CC1 [Compound 34] | > 25 µM
21 | O=C(c1cc(-c2cnccn2)n(-c2ccc(F)c(C(F)(F)F)c2)n1)N1CCC2(CC1)C(=O)NCN2c1ccc(F)cc1 [Compound 306] | 0.001 to 5 µM
22 | O=C(c1cc(-c2cccnc2)n(-c2cc(F)c(F)c(F)c2)n1)N1CCC(n2c(=O)[nH]c3cccnc32)CC1 [Compound 208] | 0.001 to 5 µM
23 | O=C(c1cc(-c2cccnc2)n(-c2ccc(C(F)(F)F)c(F)c2F)n1)N1CCC(n2c(=O)[nH]c3ccc(F)c(F)c32)CC1 [Compound 222] | 0.001 to 5 µM
24 | O=C(c1cc(-c2cccnc2)n(-c2ccc(C(F)(F)F)c(F)c2)n1)N1CCC2(CC1)C(=O)NCN2c1cc(F)c(F)c(F)c1 [Compound 186] | 0.001 to 5 µM
25 | O=C1CSC2(CCN(C(=O)c3cc(-c4ccncc4)n(-c4ccc(C(F)(F)F)cc4)n3)CC2)N1 [Compound 68] | > 25 µM
26 | O=C1OC2(CCN(C(=O)c3cc(-c4ccncc4)n(-c4ccccc4)n3)CC2)c2ccccc21 [Compound 171] | > 25 µM
27 | O=C(c1cc(-c2ccccn2)n(-c2cc(F)c(F)c(F)c2)n1)N1CCC(n2c(=O)[nH]c3ccc(F)c(F)c32)CC1 [Compound 252] | 5 to 25 µM
28 | O=C(c1cc(-c2ccncc2)n(-c2ccc(F)cc2F)n1)N1CCC(n2c(=O)[nH]c3ccccc32)CC1 [Compound 153] | > 25 µM
29 | CC1CC(n2c(=O)[nH]c3ccc(F)c(F)c32)CCN1C(=O)c1cc(-c2cccnc2)n(-c2ccc(F)c(C(F)(F)F)c2)n1 (stereo not drawn) [Compound 293] | 0.001 to 5 µM

Row | Compound | IC50
30 | O=C(c1cc(-c2cccnc2)n(-c2cc(F)c(F)c(F)c2)n1)N1CCC2(CC1)C(=O)NCN2c1ccc(F)c(F)c1 [Compound 254] | 0.001 to 5 µM
31 | O=C(c1cc(-c2cccnc2)n(-c2cc(F)c(C(F)(F)F)cc2F)n1)N1CCC(n2c(=O)[nH]c3ccc(F)c(F)c32)CC1 [Compound 223] | 0.001 to 5 µM
32 | O=C(c1nn(-c2ccc(F)c(C(F)(F)F)c2)c2c1CCc1cccnc1-2)N1CCC(n2c(=O)[nH]c3ccc(F)c(F)c32)CC1 [Compound 316] | 0.001 to 5 µM
33 | O=C(c1cc(-c2ccncc2)n(-c2ccc(C(F)(F)F)cc2)n1)N1CCC2(CC1)OCc1ccccc12 [Compound 57] | > 25 µM
34 | N#Cc1c(F)ccc2[nH]c(=O)n(C3CCN(C(=O)c4cc(-c5cccnc5)n(-c5cc(F)c(F)c(F)c5)n4)CC3)c12 [Compound 233] | 0.001 to 5 µM
35 | N#Cc1ccc(-n2nc(C(=O)N3CCC(n4c(=O)[nH]c5ccc(F)c(F)c54)CC3)cc2-c2cccnc2)cc1C(F)(F)F [Compound 284] | 0.001 to 5 µM
36 | O=C(c1nn(-c2cc(F)c(F)c(F)c2)c(-c2cccnc2)c1Br)N1CCC(n2c(=O)[nH]c3ccc(F)c(F)c32)CC1 [Compound 211] | 0.001 to 5 µM
37 | O=C(c1nn(-c2ccc(F)c(C(F)(F)F)c2)c2c1CCc1ncccc1-2)N1CCC2(CC1)C(=O)NCN2c1ccc(F)cc1 [Compound 313] | 0.001 to 5 µM
38 | O=C(c1cc(-c2ccncc2)n(-c2ccc(C(F)(F)F)nc2)n1)N1CCC2(CC1)SCCS2 [Compound 128] | > 25 µM
39 | O=C(c1cc(-c2ccncc2)n(-c2ccc(C(F)(F)F)c(F)c2)n1)N1CCC(n2c(=O)[nH]c3ccccc32)CC1 [Compound 162] | 5 to 25 µM
40 | O=C(c1cc(-c2ccncc2)n(-c2ccc(C(F)(F)F)nc2)n1)N1CCC2(CC1)C(=O)NCN2c1ccc(Cl)cc1 [Compound 121] | > 25 µM
41 | Cn1c(=O)c(=O)n(C)c2cc(NC(=O)c3cc(-c4ccncc4)n(-c4cnccn4)n3)ccc21 [Compound 133] | > 25 µM
42 | Cc1nc(C(F)(F)F)ccc1-c1cc(C(=O)N2CCC3(CC2)C(=O)NCN3c2ccc(F)cc2)nn1-c1ccc(C(F)(F)F)c(F)c1 [Compound 263] | > 25 µM
43 | O=C(c1cc(-c2ccncc2)n(-c2ccc(C(F)(F)F)nc2)n1)N1CCC2(CC1)OCc1ccccc12 [Compound 122] | > 25 µM
44 | O=C(c1cc(-c2cccnc2)n(-c2ccc(Cl)c(C(F)(F)F)c2)n1)N1CCC2(CC1)C(=O)NCN2c1ccc(F)cc1 [Compound 296] | 0.001 to 5 µM
45 | Cc1cc(N2CNC(=O)C23CCN(C(=O)c2cc(-c4cccnc4)n(-c4ccc(C#N)c(F)c4)n2)CC3)cc(C)c1F [Compound 329] | 0.001 to 5 µM
46 | O=C(c1cc(-c2ccncc2)n(-c2ccc(C(F)(F)F)cc2)n1)N1CCC(n2c(=O)[nH]c3cc(C(F)(F)F)ccc32)CC1 [Compound 178] | 5 to 25 µM
47 | N#Cc1ccc2[nH]c(=O)n(C3CCN(C(=O)c4cc(-c5cccnc5)n(-c5ccc(C#N)c(F)c5)n4)CC3)c2c1 [Compound 328] | 0.001 to 5 µM
48 | N#Cc1cc(-n2nc(C(=O)N3CCC(n4c(=O)[nH]c5ccc(F)c(F)c54)CC3)cc2-c2cccnc2)ccc1F [Compound 248] | 0.001 to 5 µM
49 | O=C1Nc2ccc(F)cc2C2(CCN(C(=O)c3cc(-c4cccnc4)n(-c4ccc(F)c(C(F)(F)F)c4)n3)CC2)O1 [Compound 282] | 0.001 to 5 µM
50 | O=C(c1cc(-c2ccncc2)n(-c2ccc(C(F)(F)F)cc2)n1)N1CCC(n2c(=O)[nH]c3ccc(F)c(F)c32)CC1 [Compound 177] | 0.001 to 5 µM
51 | O=C1Nc2ncccc2C2(CCN(C(=O)c3cc(-c4cccnc4)n(-c4ccc(F)c(C(F)(F)F)c4)n3)CC2)O1 [Compound 281] | 0.001 to 5 µM
52 | O=C(c1cc(-c2ccncc2)n(-c2ccccc2)n1)N1CCC(n2c(=O)[nH]c3ccccc32)CC1 [Compound 25] | > 25 µM
53 | O=C(c1cc(-c2cccnc2Cl)n(-c2ccc(C(F)(F)F)c(F)c2)n1)N1CCC2(CC1)C(=O)NCN2c1ccc(F)cc1 [Compound 317] | 0.001 to 5 µM
54 | Cc1cc(N2CNC(=O)C23CCN(C(=O)c2cc(-c4cccnc4)n(-c4ccc(C(F)(F)F)c(F)c4)n2)CC3)cc(C)c1F [Compound 195] | 0.001 to 5 µM
